We go through three molecules from PMC6160049 (PLoS ONE, 2018).

Series [1] in a line: Peptide with mannose lipid (ML-C14) plasma stability analysis. The settings on record: for dynantin remaining in rat plasma / dynantin degradation in rat plasma: 37 °C, RP-HPLC, UV 210 nm; for dynantin remaining in rat plasma: relative to T-zero; for dynantin degradation in rat plasma: 48 h. The source says:
(§1) Female Sprague Dawley rats were purchased from Charles River (QC, Canada). Rats were housed at the Laurentian University Animal Care Facility and supplied with food and water ad libitum. All experimental protocols were approved by the Health Sciences North Research Institute biosafety committee and the Laurentian University animal care committee. Blood was collected from rats under a surgical plane of anesthesia using isoflurane via cardiac puncture. Rats were then euthanized by excess isoflurane in addition to the severing of the descending aorta and cutting of the diaphragm. Blood was immediately mixed with an ethylenediaminetetraacetic acid solution (Fisher Scientific, Fairlawn NJ,0.1 M, 5 mM final concentration) and stored on ice until being centrifuged at 2,100 x G and 4 °C for 10 minutes. The top plasma layer was removed, aliquoted and stored at -80 °C.
(§2) Dynantin samples were analyzed at a constant solvent flow rate of 0.7 mL/min at 35 °C using a binary gradient (Table 1). Solvent A consisted of a 25% solution of acetonitrile (HPLC grade Fisher Scientific) in ddH2O (0.2 μm filtered) and solvent B consisted of acetonitrile, with each solvent containing 0.1% trifluoroacetic acid (v/v, protein sequencing grade, Sigma Aldrich, Fairlawn NJ).
(§3) MDP samples were analyzed at a constant solvent flow rate of 1.0 mL/min at 35 °C using a binary gradient (Table 2). Solvent A consisted of ddH2O (0.2 μm filtered) and solvent B consisted of methanol (MeOH) (HPLC grade, Fisher Scientific, Fairlawn NJ), with each solvent containing 0.1% formic acid (v/v, LC/MS grade, Fisher Scientific).
Peptide stability in combination with ML-C14 was investigated using a modified version of the above noted procedure. Aliquots of dynantin or MDP were first combined with varying amounts of ML-C14 (in THF, 20 μL total addition), and then thoroughly mixed before the addition of thawed rat plasma (88 μL). A control sample was also prepared by combining each peptide with THF alone (20 μL) and plasma (88 μL). Samples were incubated at 37 °C in a heating mantle for varying lengths of time before being stored at -80 °C. For HPLC analysis, samples were thawed, thoroughly mixed, diluted in MeOH to destroy liposome particles (1/10 for dynantin, 1/5 for MDP), and solids pelleted by centrifugation at 10,000 rpm and 20 °C for 5 min. The supernatants were carefully removed for analysis (8 μL injections, in duplicate). Stability is represented as the percentage of peptide remaining relative to the amount determined at T-zero.

Series [2] can be described thus: Peptide plasma stability analysis (peptide alone).
Source text: as §1, §2, §3

Series [3] can be described thus: thawed rat plasma. As to conditions: Female Sprague Dawley rats, 37 °C, up to 24 hours.

On to `CC[C@H](C)[C@H](NC(=O)[C@H](CCCN=C(N)N)NC(=O)[C@H](CCCN=C(N)N)NC(=O)[C@H](CC(C)C)NC(=O)[C@H](Cc1ccccc1)NC(=O)CNC(=O)CNC(=O)[C@@H](C)Cc1c(C)cc(O)cc1C)C(=O)N[C@@H](CCCN=C(N)N)C(=O)N1CCC[C@H]1C(=O)N[C@@H](CCCCN)C(N)=O` [dynantin], for which the “dynantin remaining in rat plasma” value was 21 ± 4% in series [1] (with ML-C14, peptide:glycolipid 1:4, EDTA rat plasma 88 μL, 12 h, diluted 1/10 in MeOH, mean ± SEM of three experiments); “no detectable peptide” in series [1] (with ML-C14, peptide:glycolipid 1:4, rat plasma, 24 h); 62 ± 4% in series [1] (with ML-C14, peptide:glycolipid 1:8, rat plasma, 12 h, mean ± SEM of three experiments); 20 ± 3% in series [1] (with ML-C14, peptide:glycolipid 1:8, rat plasma, 24 h, mean ± SEM of three experiments); 66 ± 6% in series [1] (with ML-C14, peptide:glycolipid 1:10, rat plasma, 12 h, mean ± SEM of three experiments); 19 ± 4% in series [1] (with ML-C14, peptide:glycolipid 1:10, rat plasma, 24 h, mean ± SEM of three experiments). Further, the “dynantin degradation in rat plasma” value in series [1] (with ML-C14, peptide:glycolipid 1:8, rat plasma) was “completely degraded”; in series [1] (with ML-C14, peptide:glycolipid 1:10, rat plasma), “completely degraded”. In addition, in series [2] (peptide alone, EDTA rat plasma, 37 °C, 12 h, RP-HPLC, UV 210 nm, relative to T-zero, three experiments), the “degradation of dynantin in rat plasma” value was “complete dynantin degradation”.
For `CC(=O)N[C@H]1C(O)O[C@H](CO)[C@@H](O)[C@@H]1O[C@H](C)C(=O)N[C@@H](C)C(=O)N[C@H](CCC(=O)O)C(N)=O` (stereo partly shown) [MDP, muramyl dipeptide], the “degradation of MDP in rat plasma” value was “Complete degradation” in series [1] and “completely degraded” in series [2]. In series [2] (female, Sprague Dawley, rat, plasma), this molecule came in with a metabolised at 12 h of approximately 60%.
Take (2S)-Mdp-G-G-F-L-R-R-I-R-P-K-NH2: the cleaved bond entry in series [3] is “L-R and R-R, major and R-I”.
